{
  "source": "paper PMC9465256",
  "about": "“Discovering monoacylglycerol lipase inhibitors by a combination of fluorogenic substrate assay and activity-based protein profiling” (Frontiers in Pharmacology, 2022)",
  "format_in_all_cases": "biochemical",
  "key": {"[1]": {"target": "T1, endogenous mouse MAGL (Mus musculus, UniProt O35678)", "T1 construct": "on endogenous MAGL, we applied an ABPP assay with mouse brain membrane proteome; from tissue; host or cells: mouse brain membrane fraction", "T1 sequence (O35678 1-303)": "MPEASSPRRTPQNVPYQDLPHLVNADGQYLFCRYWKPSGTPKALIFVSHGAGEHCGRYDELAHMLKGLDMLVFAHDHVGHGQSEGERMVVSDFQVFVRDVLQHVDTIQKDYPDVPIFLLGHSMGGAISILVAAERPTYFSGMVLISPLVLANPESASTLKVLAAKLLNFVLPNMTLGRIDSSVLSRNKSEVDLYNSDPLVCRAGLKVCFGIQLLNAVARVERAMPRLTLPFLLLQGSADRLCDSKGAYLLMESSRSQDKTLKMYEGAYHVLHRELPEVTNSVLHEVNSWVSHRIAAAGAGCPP", "experiment": "Competitive ABPP, mouse brain membrane proteome: MAGL band", "conditions": "FP-TAMRA 250 nM", "experimental": "(§1) Mouse brains were isolated according to guidelines approved by the ethical committee of Western China Hospital, Sichuan University (No. 2021765A). Mouse brains were dounce homogenized lysis buffer (20 mM HEPES, 2 mM DTT, 1 mM MgCl2, 25 U/mL benzonase) and incubated on ice for 15 min, followed by low-speed spin (2,500 g, 3 min, 4 C) to remove debris. The supernatant was subjected to ultracentrifugation (100,000 g, 45 min, 4°C) to generate the cytosolic fraction in the supernatant, as well as the membrane fraction as a pellet. After removal of the soluble supernatant, the pellet was resuspended in storage buffer (20 mM HEPES, 2 mM DTT) by pipetting. Total protein concentrations in membrane and soluble fractions were determined using a Qubit protein assay (Invitrogen). The obtained samples were stored at −80°C until further use.\nThe competitive ABPP selectivity assay was performed according to the previously reported protocol. Briefly, mouse brain membrane proteome (2 mg/ml, 20 µl) was preincubated for 30 min with 0.5 µl of DMSO (vehicle) or inhibitor (100 μM, finial concentration). Subsequently, the proteome-inhibitor complex was treated with the activity-based probe FP-TAMRA (250 nM, final concentration) for 20 min. […] The gels were then scanned and analyzed using a ChemiDoc MP system (Cy3 settings, BioRad). All the samples were measured and duplicated."}, "[2]": {"system": "serine hydrolases labeled by FP-TAMRA in mouse brain membrane proteome", "experiment": "Competitive ABPP selectivity assay, mouse brain membrane proteome", "conditions": "100 µM, FP-TAMRA 250 nM", "experimental": "as §1, with “Mouse” for “Mouse brains were isolated according to guidelines approved by the ethical committee of Western China Hospital, Sichuan University (No. 2021765A). Mouse”\nThe competitive ABPP selectivity assay was performed according to the previously reported protocol. Briefly, mouse brain membrane proteome (2 mg/ml, 20 µl) was preincubated for 30 min with 0.5 µl of DMSO (vehicle) or inhibitor (100 μM, finial concentration). […] The reactions were then quenched by 10 µl sample buffer (×4). The obtained samples were directly loaded and resolved on SDS-PAGE gel (10% acrylamide). The gels were then scanned and analyzed using a ChemiDoc MP system (Cy3 settings, BioRad). All the samples were measured and duplicated."}, "[3]": {"system": "endogenous MAGL in cancer cells", "experiment": "Competitive ABPP in cancer cell lysates: MAGL band", "conditions": "100 µM, FP-TAMRA 500 nM", "experimental": "To identify the potential off-targets of the compounds with anti-cancer activities, ABPP was applied. Cancer cells were seeded in the dishes and were washed with PBS, scraped, centrifugated (3,000 × g, 3 min) and pellets snap frozen in liquid in nitrogen. For ABPP experiments, the cell pellets were lysed by probe sonication (3 × 10 bursts) in PBS, followed by the determination of protein concentration of the intact cell lysate by Qubit assay. […] The reactions were then quenched by 10 µl sample buffer (×4). The obtained samples were directly loaded and resolved on SDS-PAGE gel (10% acrylamide). The gel-based ABPP results were then scanned and analyzed using a ChemiDoc MP system (Cy3 settings, BioRad)."}},
  "data": [
    {"smiles": "C[C@H]1COC2=C1C(=O)C(=O)c1c2ccc2c1CCCC2(C)C", "note": "[compound 23, Cryptotanshinone]", "values": [
      {"measurement": "inhibition at 100 µM", "setting": "[1]", "value": "50 to 60", "unit": "%"},
      {"measurement": "selectivity profile over serine hydrolases", "setting": "[2]", "value": "broad-spectrum inhibitors that cross-reacted with multiple serine hydrolases"},
      {"measurement": "labeling of endogenous MAGL, A549", "setting": "[3]; 30 min, A549 cell lysate", "value": "completely reduced the labeling"},
      {"measurement": "labeling of endogenous MAGL, B16-F10", "setting": "[3]; 30 min, B16-F10 cell lysate", "value": "completely reduced the labeling"},
      {"measurement": "labeling of endogenous MAGL, H1975", "setting": "[3]; 30 min, H1975 cell lysate", "value": "completely reduced the labeling"},
      {"measurement": "labeling of endogenous MAGL, HCC827", "setting": "[3]; 30 min, HCC827 cell lysate", "value": "completely reduced the labeling"},
      {"measurement": "labeling of endogenous MAGL, HT-29", "setting": "[3]; 30 min, HT-29 cell lysate", "value": "completely reduced the labeling"},
      {"measurement": "labeling of endogenous MAGL, Hela", "setting": "[3]; 30 min, Hela cell lysate", "value": "completely reduced the labeling"},
      {"measurement": "labeling of endogenous MAGL, OVCAR-3", "setting": "[3]; 30 min, OVCAR-3 cell lysate", "value": "completely reduced the labeling"},
      {"measurement": "inhibition of endogenous MAGL in the tested cancer cell lines", "setting": "[3]; cancer cell lysates", "value": "nearly complete inhibition"}
    ]}
  ]
}
